According to ChEMBL document CHEMBL1137581, “Synthesis of 1-deoxy-1-hydroxymethyl- and 1-deoxy-1-epi-hydroxymethyl castanospermine as new potential immunomodulating agents” (2007):
Activity calls are given as the source filed them. No cut-off for these calls is given here.

Experiments:
[1] = Enhancement of ConA-induced proliferation in Swiss Albino mouse splenocyte at 5 uM after 72 hrs by MTT assay relative to control; type: functional
Homo sapiens [2] = species on record: Homo sapiens; assay: Inhibition of human beta glucosidase
[3] = Enhancement of ConA-induced proliferation in Swiss Albino mouse splenocyte at 100 uM after 72 hrs by MTT assay relative to control; type: functional
[4] = Enhancement of ConA-induced IL6 secretion in Swiss Albino mouse splenocytes by ELISA relative to control; type: functional, Splenocyte
[5] = Enhancement of ConA-induced IFN-gamma secretion in Swiss Albino mouse splenocytes by ELISA relative to control; type: functional, Splenocyte
[6] = Enhancement of ConA-induced proliferation in Swiss Albino mouse splenocyte at 20 uM after 72 hrs by MTT assay relative to control; type: functional
[7] = target: T1, Alpha-galactosidase A (Homo sapiens) (UniProt P06280); assay: Inhibition of human alpha galactosidase
T1 sequence (whole entry): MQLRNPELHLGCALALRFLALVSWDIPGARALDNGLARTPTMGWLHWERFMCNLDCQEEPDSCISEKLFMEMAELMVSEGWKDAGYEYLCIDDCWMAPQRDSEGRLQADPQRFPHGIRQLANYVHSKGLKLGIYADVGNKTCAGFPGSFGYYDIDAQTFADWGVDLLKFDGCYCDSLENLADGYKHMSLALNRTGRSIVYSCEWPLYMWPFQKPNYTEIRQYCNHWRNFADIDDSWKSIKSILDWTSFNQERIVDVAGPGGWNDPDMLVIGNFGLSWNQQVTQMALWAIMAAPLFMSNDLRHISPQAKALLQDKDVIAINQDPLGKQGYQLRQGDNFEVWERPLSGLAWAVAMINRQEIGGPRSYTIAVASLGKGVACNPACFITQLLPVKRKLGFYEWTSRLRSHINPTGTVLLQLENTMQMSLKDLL

[8] = Enhancement of ConA-induced IL2 secretion in Swiss Albino mouse splenocytes by ELISA relative to control; type: functional, Splenocyte
[9] = target: T2, Neutral alpha-glucosidase AB (Homo sapiens) (UniProt Q14697); assay: Inhibition of human alpha glucosidase
T2 sequence (whole entry): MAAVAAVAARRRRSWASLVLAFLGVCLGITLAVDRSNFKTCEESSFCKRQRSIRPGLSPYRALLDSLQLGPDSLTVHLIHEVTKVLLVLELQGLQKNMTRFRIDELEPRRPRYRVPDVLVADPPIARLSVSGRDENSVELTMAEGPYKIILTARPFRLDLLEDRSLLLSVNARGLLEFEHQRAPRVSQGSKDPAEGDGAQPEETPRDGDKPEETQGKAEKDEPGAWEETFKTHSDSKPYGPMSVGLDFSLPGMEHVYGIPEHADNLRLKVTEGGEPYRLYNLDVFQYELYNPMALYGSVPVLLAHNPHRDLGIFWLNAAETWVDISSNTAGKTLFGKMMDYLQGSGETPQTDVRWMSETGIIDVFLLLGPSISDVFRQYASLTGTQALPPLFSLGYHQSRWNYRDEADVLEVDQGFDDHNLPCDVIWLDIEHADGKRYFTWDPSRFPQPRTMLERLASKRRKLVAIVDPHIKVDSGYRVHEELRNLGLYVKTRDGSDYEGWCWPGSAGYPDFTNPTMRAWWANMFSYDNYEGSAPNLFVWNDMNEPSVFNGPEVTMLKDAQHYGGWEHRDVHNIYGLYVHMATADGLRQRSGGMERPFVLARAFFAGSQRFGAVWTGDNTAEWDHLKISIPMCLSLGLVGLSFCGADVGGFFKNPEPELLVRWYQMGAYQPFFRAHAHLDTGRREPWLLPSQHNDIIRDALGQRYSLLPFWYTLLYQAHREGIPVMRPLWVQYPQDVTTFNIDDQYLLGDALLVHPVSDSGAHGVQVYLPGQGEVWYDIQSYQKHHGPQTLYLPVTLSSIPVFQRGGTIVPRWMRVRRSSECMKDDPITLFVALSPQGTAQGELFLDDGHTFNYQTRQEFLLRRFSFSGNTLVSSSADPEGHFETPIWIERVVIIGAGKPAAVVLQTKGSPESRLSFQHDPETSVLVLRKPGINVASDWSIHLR

Homo sapiens [10] = species on record: Homo sapiens; assay: Inhibition of human beta galactosidase
[11] = Enhancement of ConA-induced proliferation in Swiss Albino mouse splenocyte at 10 uM after 72 hrs by MTT assay relative to control; type: functional
[12] = Reduction of ConA-induced IL4 secretion in Swiss Albino mouse splenocytes by ELISA relative to control; type: functional, Splenocyte; parameters: scale not given: the % may be the effect or the level left
[13] = (§1) Enhancement of ConA-induced proliferation in Swiss Albino mouse splenocyte at 75 uM after 72 hrs by MTT assay relative to control; type: functional
[14] = target: Mannosyl-oligosaccharide 1,2-alpha-mannosidase IA (Homo sapiens) (UniProt P33908); assay: Inhibition of human alpha mannosidase
Splenocyte = assay: as §1; type: functional

Sequence of Mannosyl-oligosaccharide 1,2-alpha-mannosidase IA (Homo sapiens) (P33908 whole entry): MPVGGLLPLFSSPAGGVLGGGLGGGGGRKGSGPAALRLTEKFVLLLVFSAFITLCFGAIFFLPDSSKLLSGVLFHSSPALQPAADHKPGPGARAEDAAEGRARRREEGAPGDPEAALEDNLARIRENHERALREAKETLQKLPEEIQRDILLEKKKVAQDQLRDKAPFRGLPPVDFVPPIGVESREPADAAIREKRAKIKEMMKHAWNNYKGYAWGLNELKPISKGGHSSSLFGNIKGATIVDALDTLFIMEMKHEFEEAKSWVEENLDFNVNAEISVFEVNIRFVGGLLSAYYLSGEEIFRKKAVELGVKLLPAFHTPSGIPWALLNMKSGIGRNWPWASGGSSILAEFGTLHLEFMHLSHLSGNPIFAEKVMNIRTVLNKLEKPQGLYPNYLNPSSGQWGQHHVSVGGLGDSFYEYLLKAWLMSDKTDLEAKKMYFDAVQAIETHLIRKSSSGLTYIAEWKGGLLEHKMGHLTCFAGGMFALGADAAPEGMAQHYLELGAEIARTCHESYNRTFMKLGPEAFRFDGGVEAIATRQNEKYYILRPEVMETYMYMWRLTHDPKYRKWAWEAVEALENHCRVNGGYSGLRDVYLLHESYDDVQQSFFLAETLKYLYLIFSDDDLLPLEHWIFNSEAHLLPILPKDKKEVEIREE

Structure (SMILES) | Activity [1] [%] | Activity (Homo sapiens [2]) | Activity [3] [%] | Ratio [4] | Activity [5] [%] | Activity [6] [%] | Activity [7] | Activity [8] [%] | Activity [9] | Activity (Homo sapiens [10]) | Activity [11] [%] | Activity [12] [%] | Activity [13] [%] | Activity [14] | Activity (Splenocyte)
OC[C@@H]1CCN2C[C@H](O)[C@@H](O)[C@H](O)[C@@H]12 | 19 | inactive | 31 | >9 | 9.5 | 69 | inactive | 3.3 | inactive | inactive | 61 | 47 | 41 | inactive | –
OC[C@H]1CCN2C[C@H](O)[C@@H](O)[C@H](O)[C@@H]12 | 161 | inactive | 27 | >5.5 | 40.5 | 40 | inactive | 6.6 | inactive | inactive | 109 | 20.6 | – | inactive | inactive
